Experimental data from paper PMC4287973, “Tumor cell-specific inhibition of MYC function using small molecule inhibitors of the HUWE1 ubiquitin ligase” (EMBO Molecular Medicine, 2014).
Where a SMILES comes first, the peptide text is derived from it. The star is where a group is joined. Cbz = O=C(OCc1ccccc1)*

System: MIZ1
Test: HUWE1-mediated decrease in MIZ1 levels in transfected HeLa cells
Format: cell-based
Details: MG132 10 µM for 6 hrs
Description: Neither depletion nor chemical inhibition of HUWE1 affected the expression of any member of the MXD family of repressor proteins that antagonize transactivation by MYC or nuclear localization of MYC (Supplementary Figs S9A and S10). […] In contrast, ectopic expression of HUWE1 had only moderate effects on steady-state levels of MYC, consistent with the results obtained in response to depletion of HUWE1 (Fig6A). As a result, ectopic expression of HUWE1 increased the relative amount of MYC that is not bound to MIZ1 (Fig6B). […] Consistently, depletion or chemical inhibition of HUWE1 increased steady-state levels of MIZ1 in colon carcinoma cells (Fig6D and E). Similarly, depletion or inhibition of HUWE1 increased levels of MIZ1 in mouse keratinocytes (Supplementary Fig S11B and C), in which HUWE1 is known to degrade MIZ1 (Inoue et al, [2013]).
Peter et al. HUWE1 inhibition
B. Immunofluorescence staining of MYC upon HUWE1 inhibition. Ls174T cells were treated […]
Supplementary Figure S11: Characterization of HUWE1 effects on MIZ1 stability.
A, Effect of proteasome inhibition on HUWE1-induced downregulation of MIZ1. HeLa cells were transfected with plasmids encoding MIZ1 and HA-HUWE1. Cells were treated with BI8622 (20 µM) for 24 hrs, DMSO served as solvent control. MG132 was used at 10 µM for 6 hrs. Lysates were analyzed for expression of HUWE1 and MIZ1, Vinculin was used as […]

For `CC(C)C[C@@H](C=O)NC(=O)[C@H](CC(C)C)NC(=O)[C@H](CC(C)C)NC(=O)OCc1ccccc1` [MG132] (Cbz-Leu-Leu-Leu-aldehyde), which “HUWE1-mediated decrease in MIZ1 levels” value is on record?
Its value is “blocked”.
